# Data from ChEMBL document CHEMBL1201862, “PubChem BioAssay data set” (2004).
# Counter-ions that a name gives are not always drawn. The source made the active and inactive calls.
# Key:
# [1] = reduction of Shn3 3'UTR-driven luciferase in osteoblasts – cell-based, Clone20 osteoblasts, firefly luciferase, cherry-picked, dose response (AID 624132); assay type: functional;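 also: firefly luciferase luminescence from reporter carrying the Shn3 3'UTR in osteoblasts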
# [2] = loss of viability in HepG2 cells – cell-based, CellTiter-Glo, cherry-picked, cytotoxicity control for Shn3 inhibitor project, dose response (AID 624134); assay type: functional
# [3] = non-specific 3'UTR reporter inhibition in Clone20-Shn3RL – cell-based, Renilla luciferase, cherry-picked, counter-screen for Shn3 inhibitor project, dose response (AID 624133); assay type: functional
# [4] = molecular target: T1, RNA-binding protein pos-1 (Caenorhabditis elegans, UniProt G5EF15); assay: disruptors of C. elegans POS-1 RNA interaction – biochemical, fluorescence polarization, dose response (AID 1964);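 also: purified POS-1 fused to maltose binding protein made in E. coli; potency of compounds blocking POS-1 binding to fluorescent RNA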
# T1 sequence (G5EF15 whole entry): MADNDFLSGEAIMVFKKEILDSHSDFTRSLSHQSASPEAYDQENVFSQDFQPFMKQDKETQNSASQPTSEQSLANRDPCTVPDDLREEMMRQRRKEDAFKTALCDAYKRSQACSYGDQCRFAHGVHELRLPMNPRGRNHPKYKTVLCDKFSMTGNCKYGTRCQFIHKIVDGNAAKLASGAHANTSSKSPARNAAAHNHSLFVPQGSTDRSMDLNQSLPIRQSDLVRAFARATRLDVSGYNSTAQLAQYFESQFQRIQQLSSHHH
# [5] = molecular target: T2, Zinc finger protein mex-5 (Caenorhabditis elegans, UniProt Q9XUB2); assay: potency of MEX-5 RNA-binding blockers – biochemical, C. elegans, fluorescence polarization, dose response (AID 1960)
# T2 sequence (Q9XUB2 whole entry): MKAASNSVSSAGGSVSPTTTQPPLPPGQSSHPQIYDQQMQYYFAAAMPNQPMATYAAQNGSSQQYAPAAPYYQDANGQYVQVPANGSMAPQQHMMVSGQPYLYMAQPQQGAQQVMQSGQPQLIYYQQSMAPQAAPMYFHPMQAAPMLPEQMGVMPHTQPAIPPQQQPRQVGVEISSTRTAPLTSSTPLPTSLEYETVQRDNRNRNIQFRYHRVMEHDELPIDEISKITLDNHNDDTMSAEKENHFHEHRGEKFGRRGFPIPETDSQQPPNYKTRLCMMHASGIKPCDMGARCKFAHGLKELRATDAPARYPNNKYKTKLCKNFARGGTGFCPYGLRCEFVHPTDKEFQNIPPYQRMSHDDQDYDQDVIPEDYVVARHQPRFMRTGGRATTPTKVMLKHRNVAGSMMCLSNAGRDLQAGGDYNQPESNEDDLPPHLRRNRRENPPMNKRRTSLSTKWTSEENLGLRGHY
# [6] = Luminescence Cell-Based Dose Retest to Confirm Inhibitors of Cancer Stem Cells. [Related pubchem assays (depositor defined):AID2717, AID2721]; assay type: functional, Homo sapiens; details: Homo sapiens
# Large T antigen = Large T antigen (Simian virus 40, UniProt P03070); assay type: functional, Betapolyomavirus macacae;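 also: Confirmatory-stage PubChem screen for compounds that inhibit SV40 T antigen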
# Chain of Large T antigen (P03070 whole entry): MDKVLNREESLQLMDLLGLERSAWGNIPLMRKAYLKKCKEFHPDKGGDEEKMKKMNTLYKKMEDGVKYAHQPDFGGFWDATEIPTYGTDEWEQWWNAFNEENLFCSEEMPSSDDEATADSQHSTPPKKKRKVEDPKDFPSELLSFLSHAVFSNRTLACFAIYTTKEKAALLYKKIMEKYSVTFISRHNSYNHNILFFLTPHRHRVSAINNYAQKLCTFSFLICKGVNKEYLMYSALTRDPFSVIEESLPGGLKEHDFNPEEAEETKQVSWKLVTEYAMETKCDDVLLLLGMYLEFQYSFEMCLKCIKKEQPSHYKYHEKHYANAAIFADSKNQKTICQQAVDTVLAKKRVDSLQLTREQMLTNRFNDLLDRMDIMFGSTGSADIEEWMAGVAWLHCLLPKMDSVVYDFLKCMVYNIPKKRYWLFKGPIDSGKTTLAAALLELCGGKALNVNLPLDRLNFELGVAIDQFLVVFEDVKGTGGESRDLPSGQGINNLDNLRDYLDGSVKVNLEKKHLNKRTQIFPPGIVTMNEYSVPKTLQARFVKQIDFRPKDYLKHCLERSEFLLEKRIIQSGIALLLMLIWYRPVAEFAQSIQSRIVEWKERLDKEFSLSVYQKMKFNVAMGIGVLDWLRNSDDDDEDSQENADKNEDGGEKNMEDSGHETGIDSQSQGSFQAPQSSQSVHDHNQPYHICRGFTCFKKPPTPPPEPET
# Protein skinhead-1 = molecular target: T3, Protein skinhead-1 (Caenorhabditis elegans, UniProt P34707); assay type: functional
# T3 sequence (P34707 whole entry): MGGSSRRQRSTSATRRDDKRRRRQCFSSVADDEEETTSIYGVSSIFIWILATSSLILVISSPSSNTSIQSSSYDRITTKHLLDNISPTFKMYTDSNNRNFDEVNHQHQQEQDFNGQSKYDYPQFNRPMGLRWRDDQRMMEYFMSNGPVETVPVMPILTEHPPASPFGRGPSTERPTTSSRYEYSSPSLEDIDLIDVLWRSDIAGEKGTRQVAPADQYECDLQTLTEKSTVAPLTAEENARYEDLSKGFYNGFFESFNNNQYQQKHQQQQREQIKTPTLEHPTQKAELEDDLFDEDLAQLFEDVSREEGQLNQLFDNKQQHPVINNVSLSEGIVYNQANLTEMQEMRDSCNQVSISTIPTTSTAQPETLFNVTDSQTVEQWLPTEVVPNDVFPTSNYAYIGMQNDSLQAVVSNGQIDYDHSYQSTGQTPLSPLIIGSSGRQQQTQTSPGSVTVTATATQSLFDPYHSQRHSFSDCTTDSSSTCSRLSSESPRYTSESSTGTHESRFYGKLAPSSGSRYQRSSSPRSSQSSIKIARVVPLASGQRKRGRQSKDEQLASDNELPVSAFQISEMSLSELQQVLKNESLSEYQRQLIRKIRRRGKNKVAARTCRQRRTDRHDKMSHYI
# [7] = molecular target: T4, Replicative DNA helicase DnaB (Mycobacterium tuberculosis, UniProt P9WMR3); assay: DnaB intein splicing inhibitors, dose response, biochemical, cell-free fluorescence (AID 449749); assay type: functional
# T4 sequence (P9WMR3 whole entry): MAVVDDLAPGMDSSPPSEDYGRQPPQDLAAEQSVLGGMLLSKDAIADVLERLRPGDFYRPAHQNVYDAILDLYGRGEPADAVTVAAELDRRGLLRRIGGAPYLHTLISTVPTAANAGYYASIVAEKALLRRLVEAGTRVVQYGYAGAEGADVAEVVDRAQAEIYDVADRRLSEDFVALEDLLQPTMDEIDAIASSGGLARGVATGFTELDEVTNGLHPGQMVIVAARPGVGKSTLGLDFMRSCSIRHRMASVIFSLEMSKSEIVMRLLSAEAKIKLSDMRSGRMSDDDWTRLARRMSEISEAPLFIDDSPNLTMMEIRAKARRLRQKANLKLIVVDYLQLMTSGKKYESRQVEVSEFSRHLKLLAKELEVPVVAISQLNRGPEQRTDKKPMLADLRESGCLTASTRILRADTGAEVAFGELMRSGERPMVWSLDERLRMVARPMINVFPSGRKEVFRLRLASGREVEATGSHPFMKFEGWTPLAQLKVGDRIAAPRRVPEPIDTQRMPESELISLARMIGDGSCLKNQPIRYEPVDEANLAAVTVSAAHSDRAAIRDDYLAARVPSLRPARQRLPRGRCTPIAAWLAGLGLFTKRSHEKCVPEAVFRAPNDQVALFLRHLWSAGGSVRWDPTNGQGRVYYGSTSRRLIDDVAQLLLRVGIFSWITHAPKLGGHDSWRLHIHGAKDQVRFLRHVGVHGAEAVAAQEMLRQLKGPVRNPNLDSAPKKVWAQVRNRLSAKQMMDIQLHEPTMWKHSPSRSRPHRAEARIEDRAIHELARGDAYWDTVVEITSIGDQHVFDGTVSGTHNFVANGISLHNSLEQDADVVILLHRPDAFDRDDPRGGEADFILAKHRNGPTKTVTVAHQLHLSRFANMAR
# Protein RecA = molecular target: T5, Protein RecA (Mycobacterium tuberculosis, UniProt P9WHJ3); assay: Fluorescence Cell-Free Homogeneous Dose Retest to Identify Inhibitors of RecA-Intein Splicing Activity. [Related pubchem assays (depositor defined):AID2097, AID2223, AID489010, AID492950]; assay type: functional
# T5 sequence (P9WHJ3 whole entry): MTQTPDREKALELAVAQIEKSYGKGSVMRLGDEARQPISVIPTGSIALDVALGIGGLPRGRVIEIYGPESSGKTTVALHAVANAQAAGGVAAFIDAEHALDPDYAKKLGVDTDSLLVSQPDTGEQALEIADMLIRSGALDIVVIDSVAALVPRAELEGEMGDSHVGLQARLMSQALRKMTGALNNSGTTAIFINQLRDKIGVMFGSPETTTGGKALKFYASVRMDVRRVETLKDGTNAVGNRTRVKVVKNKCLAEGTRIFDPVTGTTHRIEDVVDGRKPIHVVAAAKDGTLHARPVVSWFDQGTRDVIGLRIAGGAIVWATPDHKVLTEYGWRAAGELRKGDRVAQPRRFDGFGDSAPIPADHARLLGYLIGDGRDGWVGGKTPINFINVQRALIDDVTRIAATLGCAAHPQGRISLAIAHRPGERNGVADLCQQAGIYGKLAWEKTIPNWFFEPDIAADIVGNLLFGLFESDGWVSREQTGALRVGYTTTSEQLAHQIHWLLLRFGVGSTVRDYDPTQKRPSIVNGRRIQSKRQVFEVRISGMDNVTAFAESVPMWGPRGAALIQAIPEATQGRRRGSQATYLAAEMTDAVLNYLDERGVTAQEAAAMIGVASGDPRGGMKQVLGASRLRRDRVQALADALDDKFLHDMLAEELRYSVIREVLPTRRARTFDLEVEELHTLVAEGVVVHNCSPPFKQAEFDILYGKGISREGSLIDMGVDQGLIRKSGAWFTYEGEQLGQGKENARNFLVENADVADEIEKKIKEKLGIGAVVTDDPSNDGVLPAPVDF
# cells [8] = assay type: functional, cell-based
# cells [9] = assay type: functional, cell-based; remark: listed apart in the source
# INS1 = assay: INS-1E survival protection against cytokine death – cell-based, luminescence, retest, dose response (AID 449756); assay type: functional; details: Rattus norvegicus;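 also: cell death triggered by IL-1 beta plus TNF-alpha plus IFN-gamma mixture; protective hits raise ATP signal compared with cytokine alone wells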
# P388/ADR = assay: cells; assay type: functional; details: Mus musculus
# [10] = viability of uninfected HEp-2 cells – cell-based, HTS, cytotoxicity control for RSV inhibitor project, dose response (AID 2410); assay type: functional; details: human respiratory syncytial virus
# [11] = molecular target: FAD-linked sulfhydryl oxidase ALR (Homo sapiens, UniProt P55789); assay: ALR-catalysed DTT oxidation blockers – biochemical, H2O2 detection, luminescence, cherry-pick, dose response (AID 493248)
# Chain of FAD-linked sulfhydryl oxidase ALR (P55789 whole entry): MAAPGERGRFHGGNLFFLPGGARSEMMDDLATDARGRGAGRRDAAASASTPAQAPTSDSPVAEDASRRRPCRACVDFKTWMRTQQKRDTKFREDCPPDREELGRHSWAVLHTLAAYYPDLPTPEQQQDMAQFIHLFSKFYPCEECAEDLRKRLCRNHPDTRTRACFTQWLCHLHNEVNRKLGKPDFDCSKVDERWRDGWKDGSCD
smiles,measurement,setting,value
O=c1c2ccccc2nc2n1C(CSCc1ccc(Cl)cc1Cl)CS2 (centres undefined),AC50,[1],1.45 µM (active)
same,AC50,[2],46.2 µM (active)
same,AC50,[3],3.48 µM (active)
Clc1cccc(CSc2nc3cc[nH]cc-3n2)c1,EC50,[4],> 300 µM (not active)
same,EC50,[5],> 300 µM (not active)
O=C1CSC(=S)N1N1C(=O)c2cccc([N+](=O)[O-])c2C1=O,EC50,[4],24.9 µM (active)
same,EC50,[5],24.8 µM (active)
Cc1n[nH]c(S/C(=C/c2ccc(-c3cccc(Cl)c3)o2)C(=O)O)n1,EC50,[4],> 300 µM (not active)
same,EC50,[5],69.5 µM (active)
CC(=O)c1ccc(N2CCN(c3ccc(S(=O)(=O)NCCCN(C)C)cc3[N+](=O)[O-])CC2)cc1,AC50,[6],1.41 µM (active)
same,AC50,[1],3.78 µM (active)
same,AC50,[2],27.3 µM (active)
same,AC50,[3],36.7 µM (active)
CC(C)(C)OC(=O)NCCCCC1=CC2=CC(=O)C(C)(OC(=O)c3ccco3)C(=O)C2=CO1 (centres undefined),EC50,[4],35.5 µM (active)
same,EC50,[5],30.3 µM (active)
Cc1cc(O)cc2c1C(=O)/C(=C/c1ccco1)O2,EC50,[4],15.8 µM (active)
same,EC50,[5],> 300 µM (not active)
COc1cc(/C=C/C(=O)OCC(=O)N2CC(=O)Nc3ccccc32)ccc1O,IC50,Large T antigen,12.6 µM (active)
N=c1c(C(=O)NC2CCCCC2)cc2c(=O)n3ccccc3nc2n1CCc1ccccc1,EC50,[4],15.2 µM (active)
same,EC50,[5],16.1 µM (active)
CCOC(=O)Nc1nc(-c2ccc(Cl)cc2Cl)cs1,IC50,Protein skinhead-1,21.4 µM (active)
Nc1cnc(Nc2ccc(Br)cc2)nc1N,IC50,Large T antigen,22.3 µM (active)
CCOc1ccc(CN(C)c2ccc(S(=O)(=O)N3CCN(C)CC3)cc2[N+](=O)[O-])cc1OC,AC50,[1],3.38 µM (active)
same,AC50,[2],43 µM (active)
same,AC50,[3],5.91 µM (active)
O=S(=O)(c1cccc2c(S(=O)(=O)N3CCCC3)cccc12)N1CCCC1,IC50,Protein skinhead-1,> 100 µM (inactive)
O=C1c2ccccc2NC2(CCCCC2)N1c1ccc(O)cc1,IC50,Large T antigen,12.5 µM (active)
COc1ccccc1Nc1nc2nonc2nc1N1CCCCC1C (centres undefined),EC50,[4],95.5 µM (active)
same,EC50,[5],> 300 µM (not active)
CNc1c(N)n(Cc2ccccc2)c(=O)[nH]c1=O,EC50,[4],> 300 µM (not active)
same,EC50,[5],92.1 µM (inconclusive)
C=CSc1sc(Cl)c(N2CCOCC2)c1[N+](=O)[O-],AC50,[7],11.1 µM (active)
same,EC50,Protein RecA,54.6 µM (active)
Cc1ccc2[nH]c3c(c2c1)CN(C(=O)CN1CCN(C(=O)c2ccco2)CC1)CC3,EC50,[4],112 µM (active)
same,EC50,[5],68 µM (active)
O=C(O)[C@H]1CCCC[C@H]1C(=O)Nc1ccc(Nc2ccccc2)cc1,IC50,Large T antigen,9.46 µM (active)
COc1ccc2oc(C(F)(F)C(F)F)cc(=O)c2c1,IC50,Protein skinhead-1,> 100 µM (inactive)
Cc1onc(-c2ccccc2)c1-c1nc2cc(Cl)ccc2c(=O)o1,AC50,[7],1.53 µM (active)
same,EC50,Protein RecA,158 µM (active)
NC(=Nc1ccc(N)cc1)C(N)=Nc1ccc(N)cc1,EC50,[4],> 300 µM (not active)
same,EC50,[5],42.8 µM (active)
ClCCN(CCCl)c1ccc(C=Cc2ccncn2)cc1,IC50,Protein skinhead-1,> 100 µM (inactive)
N#Cc1ccc(-c2nc3c4ccccc4ccn3c2Cc2ccccc2C(F)(F)F)cc1,IC50,Protein skinhead-1,> 100 µM (inactive)
C=CCc1cccc(/C=N/NC(=O)c2ccc3[nH]cnc3c2)c1O,EC50,cells [8],11.8 µM (active)
same,EC50,cells [9],44.5 µM (active)
same,AC50,[6],3.81 µM (active)
same,AC50,INS1,1.61 µM (active)
Cc1cc2c(c3oc(C4(C)OC4C4OC4C)cc(=O)c13)C(=O)c1c(O)c(C3CC(C)(N(C)C)C(O)C(C)O3)cc(C3CC(N(C)C)C(O)C(C)O3)c1C2=O (centres undefined),GI50,P388/ADR,0.0025 µM (active)
O=C(CSc1cccc2cccnc12)N/N=C/c1ccc(O)cc1,IC50,Large T antigen,11.6 µM (active)
CCc1ccc(NC(=O)C(=O)N/N=C(\C)CC(=O)Nc2ccccn2)cc1,AC50,[7],> 380 µM (inactive)
same,EC50,Protein RecA,> 380 µM (inactive)
COc1ccc(/C=N/NC(=O)c2ccoc2C)cc1O,CC50,[10],18.5 µM (active)
same,EC50,cells [8],> 350 µM (not active)
same,IC50,Large T antigen,9.6 µM (active)
same,EC50,cells [9],6.49 µM (active)
same,AC50,[11],1.2 µM (active)
O=Cc1coc2c(ccc3ccccc32)c1=O,IC50,Large T antigen,9.01 µM (active)
CC(C)NC(=N)NC(=N)Nc1ccc(Cl)cc1 [PROGUANIL HYDROCHLORIDE],AC50,[1],0.37 µM (active)
same,AC50,[3],0.403 µM (active)
